In article PMC7618541 (Science (New York, N.Y.), 2025):

What was measured:
[1] = target: Nudix hydrolase 5 (NUDT5) (Homo sapiens, UniProt Q9UKK9); experiment: PROTAC degradation of endogenous NUDT5 in cells, western blot, […] h; assay type: cell-based
[2] = target: phosphoribosyl pyrophosphate amidotransferase (PPAT) (Homo sapiens, UniProt Q06203); experiment: GDH-coupled NADH fluorescence assay of purified PPAT; assay type: biochemical
Sequence of phosphoribosyl pyrophosphate amidotransferase (PPAT) (Q06203 12-517): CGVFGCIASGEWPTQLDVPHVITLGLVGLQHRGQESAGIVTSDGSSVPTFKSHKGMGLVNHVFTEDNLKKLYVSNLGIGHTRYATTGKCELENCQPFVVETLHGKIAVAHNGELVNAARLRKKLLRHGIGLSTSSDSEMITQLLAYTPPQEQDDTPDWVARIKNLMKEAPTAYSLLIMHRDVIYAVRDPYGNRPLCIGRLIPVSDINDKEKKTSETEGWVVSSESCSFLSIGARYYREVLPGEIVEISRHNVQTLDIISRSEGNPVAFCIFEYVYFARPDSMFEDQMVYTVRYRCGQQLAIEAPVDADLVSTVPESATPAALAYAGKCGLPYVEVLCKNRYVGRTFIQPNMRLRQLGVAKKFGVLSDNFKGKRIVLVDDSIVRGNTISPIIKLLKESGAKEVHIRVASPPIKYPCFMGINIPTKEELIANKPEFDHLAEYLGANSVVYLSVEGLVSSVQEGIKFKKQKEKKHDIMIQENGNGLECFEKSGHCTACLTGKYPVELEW

Compound | PROTAC degradation of endogenous NUDT5 in cells, western blot, 20 h [1] | GDH-coupled NADH fluorescence assay of purified PPAT [2]
Cn1c(=O)c2c(nc(N3CCN(C(=O)N4CCC(CN5CCN(c6ccc7c(c6)C(=O)N(C6CCC(=O)NC6=O)C7=O)CC5)CC4)CC3)n2Cc2nnc(-c3ccc(Cl)c(Cl)c3)o2)n(C)c1=O (centres unmarked) [dNUDT5] | 100 nM | 
NC(=O)CC[C@H](N)C(=O)O [glutamine] |  | the first half reaction of PPAT reaction was assayed by monitoring the production of glutamate from glutamine
